Data on 17 molecules can be found in ChEMBL document CHEMBL2203227, “Macrocycles are great cycles: applications, opportunities, and challenges of synthetic macrocycles in drug discovery” (J Med Chem, 2011).

Each structure is given as a SMILES string. pEC50, pIC50, pKi: −log10 of the molar value.

A short description of data set [1]: Reversible inhibition of HCV NS3 protease. Set-up: species or system Hepacivirus hominis.
In data set [2] the test system is Hepatitis C virus. Nature of the data set: microbe, parasite or virus in culture.
Description: Antiviral activity against HCV by cell based replicon assay
In data set [3] the target is T1, Growth hormone secretagogue receptor type 1 (Homo sapiens, UniProt Q92847). The data set can be described thus: Agonist activity at ghrelin receptor by cell based assay. Format: functional.
T1 sequence (Q92847 whole entry): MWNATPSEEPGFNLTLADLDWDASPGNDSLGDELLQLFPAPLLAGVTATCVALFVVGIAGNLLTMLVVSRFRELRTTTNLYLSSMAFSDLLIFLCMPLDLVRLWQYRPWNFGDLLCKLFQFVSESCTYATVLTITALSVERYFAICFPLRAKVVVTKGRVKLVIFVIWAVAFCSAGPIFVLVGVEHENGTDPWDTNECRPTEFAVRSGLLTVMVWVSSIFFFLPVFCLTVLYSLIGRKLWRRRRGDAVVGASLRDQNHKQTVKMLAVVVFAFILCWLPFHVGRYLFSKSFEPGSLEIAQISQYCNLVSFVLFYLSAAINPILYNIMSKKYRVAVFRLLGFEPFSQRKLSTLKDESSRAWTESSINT
The target of data set [4] is T1, Growth hormone secretagogue receptor type 1. The data set can be described thus: Agonist activity at ghrelin receptor. Format: functional.
Data set [5] is described as follows: Selectivity ratio of human elastase to HCV NS3 protease.
The target in data set [6] is T2, Growth factor receptor-bound protein 2 (Homo sapiens, UniProt P62993). The data set can be described thus: Inhibition of SH2 domain of GRB2 in human MDA-MB-453 cells. Format: cell-based.
T2 sequence (P62993 whole entry, the tested form may be a part): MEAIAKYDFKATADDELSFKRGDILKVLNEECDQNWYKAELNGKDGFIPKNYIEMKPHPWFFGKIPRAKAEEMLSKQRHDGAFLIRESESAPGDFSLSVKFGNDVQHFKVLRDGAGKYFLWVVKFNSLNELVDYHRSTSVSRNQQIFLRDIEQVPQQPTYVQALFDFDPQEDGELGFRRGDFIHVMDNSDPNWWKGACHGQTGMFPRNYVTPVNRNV
The target in data set [7] is T2, Growth factor receptor-bound protein 2. Nature of the data set: Inhibition of SH2 domain of GRB2 in human MDA-MB-231 cells. Format: cell-based.
Data set [8] has the same target. The data set can be described thus: Inhibition of SH2 domain of GRB2 by whole cell based assay.
Data set [9] has as its target C-X-C chemokine receptor type 4 (Homo sapiens, UniProt P61073). The data set can be described thus: Antagonist activity at CXCR4. Format: functional.
Data set [10] addresses T1, Growth hormone secretagogue receptor type 1. The data set can be described thus: Antagonist activity at ghrelin receptor assessed as inhibition of ghrelin-induced Ca2+ release by cell based assay. It is filed as functional.
Data set [11] deals with High affinity nerve growth factor receptor (Homo sapiens, UniProt P04629). The data set can be described thus: Inhibition of TrkA assessed as inhibition of mAb5C3 binding.
High affinity nerve growth factor receptor, sequence (P04629 whole entry): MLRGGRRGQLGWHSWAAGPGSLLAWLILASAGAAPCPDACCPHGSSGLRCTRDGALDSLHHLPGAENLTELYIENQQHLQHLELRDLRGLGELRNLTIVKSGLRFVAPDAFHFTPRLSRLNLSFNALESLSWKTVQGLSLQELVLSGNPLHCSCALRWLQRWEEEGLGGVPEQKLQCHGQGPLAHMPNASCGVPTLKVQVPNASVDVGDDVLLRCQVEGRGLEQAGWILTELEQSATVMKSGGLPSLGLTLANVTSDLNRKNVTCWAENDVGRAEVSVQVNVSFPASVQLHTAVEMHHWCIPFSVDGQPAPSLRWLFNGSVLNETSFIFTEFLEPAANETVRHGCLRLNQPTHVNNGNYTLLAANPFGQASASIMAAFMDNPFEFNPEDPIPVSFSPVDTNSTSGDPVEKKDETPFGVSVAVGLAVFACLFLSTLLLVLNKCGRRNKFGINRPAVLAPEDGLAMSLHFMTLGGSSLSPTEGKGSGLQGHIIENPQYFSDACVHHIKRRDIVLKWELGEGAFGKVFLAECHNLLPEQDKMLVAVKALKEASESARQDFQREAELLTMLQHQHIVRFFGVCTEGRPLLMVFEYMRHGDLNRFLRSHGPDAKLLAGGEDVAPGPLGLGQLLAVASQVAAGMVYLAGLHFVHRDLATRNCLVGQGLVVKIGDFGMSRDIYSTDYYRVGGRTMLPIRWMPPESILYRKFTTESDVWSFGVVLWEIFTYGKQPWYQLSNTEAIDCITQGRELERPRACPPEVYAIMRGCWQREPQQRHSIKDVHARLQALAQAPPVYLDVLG
The nature of data set [12]: Protein binding in human plasma. Format: ADME, cell-free. Particulars: read-out: PPB (converted).
The nature of data set [13]: Half life in monkey. It is filed as ADME, organism-based, Macaca mulatta. The conditions noted are these: rhesus monkey, in vivo.
A short description of data set [14]: Half life in rat. Format: ADME, organism-based. Particulars: in vivo.
The nature of data set [15]: Half life in dog. It is filed as ADME, organism-based, Canis lupus familiaris. The conditions noted are these: in vivo.
Data set [16] is described as follows: Oral bioavailability in monkey. The conditions noted are these: rhesus monkey, in vivo. It is filed as ADME, organism-based, Macaca mulatta.
A short description of data set [17]: Oral bioavailability in dog. Format: ADME, organism-based, Canis lupus familiaris. Particulars: in vivo.
Data set [18] can be described thus: Oral bioavailability in rat. It is filed as ADME, organism-based. The conditions noted are these: in vivo.
Data set [19] is described as follows: Inhibition of HCV 1a NS3 protease. Set-up: species or system Hepatitis C virus subtype 1a.
Data set [20] addresses T3, Beta-secretase 1 (Homo sapiens, UniProt P56817). Nature of the data set: Inhibition of BACE1.
The nature of data set [21]: Oral bioavailability in rhesus monkey. Format: ADME, organism-based, Macaca mulatta. The conditions noted are these: in vivo.
The target of a further data set is T4, Renin (Homo sapiens, UniProt P00797).
T4 sequence (P00797 whole entry): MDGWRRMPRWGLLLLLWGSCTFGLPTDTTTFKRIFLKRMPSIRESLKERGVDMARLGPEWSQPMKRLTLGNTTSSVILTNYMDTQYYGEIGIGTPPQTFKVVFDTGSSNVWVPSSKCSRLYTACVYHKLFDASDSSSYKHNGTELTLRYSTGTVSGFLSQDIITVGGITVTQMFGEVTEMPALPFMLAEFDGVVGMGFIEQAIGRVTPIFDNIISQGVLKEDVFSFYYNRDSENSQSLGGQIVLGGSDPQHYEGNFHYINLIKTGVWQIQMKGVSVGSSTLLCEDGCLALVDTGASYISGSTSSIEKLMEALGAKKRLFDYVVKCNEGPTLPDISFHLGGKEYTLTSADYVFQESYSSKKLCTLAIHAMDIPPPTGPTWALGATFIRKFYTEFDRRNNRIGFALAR
Nature of the data set: Inhibition of renin.

Data set [22] is described as follows: in vivo. Particulars: rat.
Data set [23] in a line: in vivo. The conditions noted are these: rat, liver/plasma.
Description: Ratio of drug level in liver to plasma of rat
Data set [24] concerns Hepatitis C virus. The data set can be described thus: microbe, parasite or virus in culture. The conditions noted are these: genotype 1b.
Description: Antiviral activity against HCV1b by cell based replicon assay
The subject of data set [25] is Hepatitis C virus. Nature of the data set: microbe, parasite or virus in culture. The conditions noted are these: subtype 1a.
Description: Antiviral activity against HCV1a by cell based replicon assay
Data set [26] is described as follows: Ratio of drug level in liver to plasma of monkey. Format: ADME, tissue-based, Macaca mulatta. Particulars: rhesus monkey.
The nature of data set [27]: Inhibition of HCV6 NS3 protease. On the set-up: species or system Hepatitis C virus genotype 6.
Data set [28] can be described thus: Inhibition of HCV4 NS3 protease. On the set-up: species or system Hepatitis C virus genotype 4.
The nature of data set [29]: Inhibition of HCV5 NS3 protease. Set-up: species or system Hepatitis C virus genotype 5.
Data set [30] can be described thus: Inhibition of HCV 2b NS3 protease. On the set-up: species or system Hepatitis C virus subtype 2b.
A short description of data set [31]: Inhibition of HCV 3a NS3 protease. Set-up: species or system Hepatitis C virus subtype 3a.
Data set [32] deals with Hepatitis C virus. The data set can be described thus: Inhibition of HCV 1b NS3 protease. Set-up: species or system Hepatitis C virus subtype 1b.
Data set [33] has as its target Cyclin-dependent kinase 1 (Homo sapiens, UniProt P06493). Nature of the data set: Inhibition of CDK1.
The target of data set [34] is Cyclin-dependent kinase 2 (Homo sapiens, UniProt P24941). The data set can be described thus: Inhibition of CDK2.
The subject of a further data set is MCF7. The data set can be described thus: cells. Particulars: Homo sapiens.
The target in data set [35] is T3, Beta-secretase 1. Nature of the data set: Inhibition of BACE1 by cell based assay.
Data set [36] addresses High affinity choline transporter 1 (Homo sapiens, UniProt Q9GZV3). The data set can be described thus: Antagonist activity at CHT1. Format: functional.
A short description of data set [37]: Antagonist activity at GABA-gated chloride channel. Format: functional.
A further data set has as its target Adenosine receptor A3 (Homo sapiens, UniProt P0DMS8). The data set can be described thus: Antagonist activity at adenosine A3 receptor. Format: functional.
The next data set addresses D(1A) dopamine receptor (Homo sapiens, UniProt P21728). Nature of the data set: Antagonist activity at dopamine D1 receptor. Format: functional.

T3 sequence (P56817 whole entry): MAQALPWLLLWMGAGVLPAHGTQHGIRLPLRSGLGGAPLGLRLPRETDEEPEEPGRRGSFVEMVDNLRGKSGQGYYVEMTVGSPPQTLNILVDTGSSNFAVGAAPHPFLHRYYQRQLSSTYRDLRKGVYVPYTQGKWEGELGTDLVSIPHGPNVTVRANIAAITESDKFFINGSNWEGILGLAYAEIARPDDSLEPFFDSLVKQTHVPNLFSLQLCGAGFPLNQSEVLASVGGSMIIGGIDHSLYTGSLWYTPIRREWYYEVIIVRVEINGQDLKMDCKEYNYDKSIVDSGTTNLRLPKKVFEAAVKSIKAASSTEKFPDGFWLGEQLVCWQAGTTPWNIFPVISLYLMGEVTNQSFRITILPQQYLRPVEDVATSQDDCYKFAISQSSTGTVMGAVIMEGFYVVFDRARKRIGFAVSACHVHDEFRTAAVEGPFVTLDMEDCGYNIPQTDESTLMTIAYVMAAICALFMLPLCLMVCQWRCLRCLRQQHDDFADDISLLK
C-X-C chemokine receptor type 4, sequence (P61073 whole entry): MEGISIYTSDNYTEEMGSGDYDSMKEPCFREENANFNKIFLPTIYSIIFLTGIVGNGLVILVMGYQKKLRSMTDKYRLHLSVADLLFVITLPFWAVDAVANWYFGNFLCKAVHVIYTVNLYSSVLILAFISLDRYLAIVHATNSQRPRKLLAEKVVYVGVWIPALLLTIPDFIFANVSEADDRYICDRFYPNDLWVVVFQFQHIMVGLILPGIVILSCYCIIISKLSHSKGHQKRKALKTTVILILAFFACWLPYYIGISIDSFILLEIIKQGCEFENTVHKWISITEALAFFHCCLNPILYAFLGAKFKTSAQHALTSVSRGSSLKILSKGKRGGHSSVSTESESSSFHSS
D(1A) dopamine receptor, sequence (P21728 whole entry): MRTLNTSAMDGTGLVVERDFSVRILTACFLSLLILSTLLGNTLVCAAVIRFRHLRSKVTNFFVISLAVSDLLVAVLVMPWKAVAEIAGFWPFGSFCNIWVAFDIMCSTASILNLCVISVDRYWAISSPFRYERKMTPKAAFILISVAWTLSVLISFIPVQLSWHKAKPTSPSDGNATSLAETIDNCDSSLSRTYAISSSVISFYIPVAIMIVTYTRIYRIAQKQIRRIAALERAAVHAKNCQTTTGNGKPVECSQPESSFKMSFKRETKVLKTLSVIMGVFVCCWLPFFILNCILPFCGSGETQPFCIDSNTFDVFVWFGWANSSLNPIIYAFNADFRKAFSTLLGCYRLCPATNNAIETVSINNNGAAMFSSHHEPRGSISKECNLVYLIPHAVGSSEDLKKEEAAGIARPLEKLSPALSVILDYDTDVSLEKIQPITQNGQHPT
Cyclin-dependent kinase 1, sequence (P06493 whole entry): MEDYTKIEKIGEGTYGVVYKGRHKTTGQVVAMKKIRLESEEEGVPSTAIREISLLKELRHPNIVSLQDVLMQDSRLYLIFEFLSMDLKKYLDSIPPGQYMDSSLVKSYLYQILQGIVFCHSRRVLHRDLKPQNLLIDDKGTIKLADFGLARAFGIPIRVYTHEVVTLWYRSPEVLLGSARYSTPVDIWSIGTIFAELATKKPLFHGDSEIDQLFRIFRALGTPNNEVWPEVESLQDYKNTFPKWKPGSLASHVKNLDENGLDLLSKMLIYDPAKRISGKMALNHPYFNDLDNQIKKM
High affinity choline transporter 1, sequence (Q9GZV3 whole entry): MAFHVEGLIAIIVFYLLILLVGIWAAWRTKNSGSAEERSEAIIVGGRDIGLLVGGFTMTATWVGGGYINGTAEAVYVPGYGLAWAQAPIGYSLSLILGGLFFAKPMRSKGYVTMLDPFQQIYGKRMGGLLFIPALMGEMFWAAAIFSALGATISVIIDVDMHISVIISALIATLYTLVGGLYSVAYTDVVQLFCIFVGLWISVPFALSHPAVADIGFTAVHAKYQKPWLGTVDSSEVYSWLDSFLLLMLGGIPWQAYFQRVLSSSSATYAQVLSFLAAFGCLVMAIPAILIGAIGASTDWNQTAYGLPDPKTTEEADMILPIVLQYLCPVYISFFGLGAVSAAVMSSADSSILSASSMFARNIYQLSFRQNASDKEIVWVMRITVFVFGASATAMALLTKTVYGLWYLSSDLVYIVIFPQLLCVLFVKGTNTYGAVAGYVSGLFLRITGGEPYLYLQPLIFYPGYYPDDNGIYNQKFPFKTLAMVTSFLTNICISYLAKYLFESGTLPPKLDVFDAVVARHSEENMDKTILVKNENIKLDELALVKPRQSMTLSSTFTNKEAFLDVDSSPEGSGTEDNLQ
Adenosine receptor A3, sequence (P0DMS8 whole entry): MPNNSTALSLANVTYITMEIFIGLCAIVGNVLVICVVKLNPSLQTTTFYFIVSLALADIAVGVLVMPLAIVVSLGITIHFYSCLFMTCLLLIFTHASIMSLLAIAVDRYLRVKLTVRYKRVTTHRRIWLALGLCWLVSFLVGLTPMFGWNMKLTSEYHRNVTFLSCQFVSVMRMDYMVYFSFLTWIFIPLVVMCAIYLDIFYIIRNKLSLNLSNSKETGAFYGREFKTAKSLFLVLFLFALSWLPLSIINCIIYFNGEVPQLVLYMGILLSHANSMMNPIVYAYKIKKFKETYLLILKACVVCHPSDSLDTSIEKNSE
Description for MCF7: Antiproliferative activity against human MCF7 cells

`CCC[C@H](NC(=O)[C@@H]1[C@H]2CCC[C@H]2CN1C(=O)[C@@H](NC(=O)[C@@H](NC(=O)c1cnccn1)C1CCCCC1)C(C)(C)C)C(=O)C(=O)NC1CC1`: the negative-log Ki (pKi) in [1] was 8.15. For the same molecule, the pIC50 in the data set with Hepatitis C virus [2] is 6.45.
In [3], `CC[C@H](C)[C@@H]1NCCOc2ccccc2CCCNC(=O)[C@@H](Cc2ccc(Cl)cc2)NC(=O)[C@@H](C)N(C)C1=O` showed a pEC50 of 7.85. For the same molecule, the pKi in data set [4] is 9.00.
With `CC(C)(C)NC(=O)N[C@H](C(=O)N1C[C@H]2[C@@H]([C@H]1C(=O)NC(CC1CCC1)C(=O)C(N)=O)C2(C)C)C(C)(C)C` (stereo partly drawn), the Selectivity ratio in data set [5] came to 2800.
On to `Cc1ccc2c(ccn2C[C@@H]2C/C=C/[C@H](c3ccc(CP(=O)(O)O)cc3)[C@H](CC(=O)O)C(=O)NC3(CCCCC3)C(=O)N[C@@H](CC(N)=O)C(=O)NC2)c1`, for which the negative-log IC50 (pIC50) in data set [6] is 6.20; in [7], < 5.00; in data set [8], ≥ 8.00.
Take `CN(C)C(=O)[C@@H](NC(=O)CNC(=O)C(=O)[C@@H]1CCCCCCCCCC[C@H](NC(=O)NC(C)(C)C)C(=O)N2C[C@H]3[C@@H]([C@H]2C(=O)N1)C3(C)C)c1ccccc1`: the pKi in [1] is 8.22.
As for `c1ccc(CNCc2ccc(CN3CCCNCCNCCCNCC3)cc2)nc1`, the pIC50 in data set [9] is 7.91.
For the molecule `CC[C@H](C)[C@@H]1NCCOc2ccccc2CCCNC(=O)[C@@H](Cc2ccccc2)NC(=O)[C@H](CO)N(C)C1=O`, the pIC50 in data set [10] was 6.30. Moreover, the pKi in data set [4] was 7.00.
Turning to `NCCCC[C@@H]1NC(=O)c2cc([N+](=O)[O-])ccc2NCc2ccc(C(N)=O)cc2NC(=O)[C@H](CO)NC1=O`, in [11], the pIC50 was 5.40.
In the case of `COc1ccc2c(O[C@@H]3C[C@H]4C(=O)N[C@]5(C(=O)O)C[C@H]5/C=C\CCCCC[C@H](NC(=O)OC5CCCC5)C(=O)N4C3)cc(-c3csc(NC(C)C)n3)nc2c1`, the fraction unbound in data set [12] is 0.009. Moreover, the half-life in data set [13] is 7 h; in [14] it was 0.8 h; in [15], 4.2 h. Further, the bioavailability in data set [16] stood at 7%; in data set [17], 36%; in [18], 13%. Further, the pKi in data set [19] is 9.52.
In turn, `CCCN(c1cc(COC(=O)[C@](C)(N)Cc2ccccc2)cc(C(=O)N[C@H](C)c2ccc(F)cc2)c1)S(C)(=O)=O` showed a pIC50 at Beta-secretase 1 [20] of 7.57.
With `O=C1CCC[C@H](CN2CCOCC2)OC(=O)[C@H](O)[C@H](CC2CCCCC2)NC(=O)[C@@H](NC(=O)[C@H](Cc2ccccc2)N[C@@H]2CN3CCC2CC3)CO1`, in data set [21], the bioavailability amounted to 1%. The pIC50 against Renin was 8.89.
For the molecule `COc1ccc2c(O[C@@H]3C[C@H]4C(=O)N[C@]5(C(=O)NS(=O)(=O)C6CC6)C[C@H]5/C=C\CCCCN(C)C(=O)[C@@H]4C3)cc(-c3nc(C(C)C)cs3)nc2c1C`, the half-life was 4 h in data set [14] and 5.1 h in data set [15]. Besides, the bioavailability in [17] was 100%. Further, the pKi in data set [19] was 9.30. The molecule also displayed a clearance in “in vivo [22]” of 38 mL/min/kg. For the same molecule, the Kp in the data set “in vivo [23]” is > 35. For the same molecule, the pEC50 was 7.60 in the data set with Hepatitis C virus [24] and 7.55 in the data set on Hepatitis C virus [25].
Regarding `CC(C)(C)OC(=O)N[C@H]1CCCCC/C=C\[C@@H]2C[C@@]2(C(=O)NS(=O)(=O)C2CC2)NC(=O)[C@@H]2C[C@@H](OC(=O)N3Cc4cccc(F)c4C3)CN2C1=O` [DANOPREVIR], the values for the Kp (in data set [26]; in “in vivo [23]”) were 100 and 10, respectively. The pIC50 in data set [27], in [28], in data set [29], in [30], in data set [31] and in [19] was 9.70 throughout. Further, the pIC50 in the data set on Hepatitis C virus [32] (Hepatitis C virus) was 9.70. The molecule further showed a pEC50 with Hepatitis C virus [2] of 8.74.
As for `N#CCNc1nc(Nc2ccccc2)ncc1Br`, the negative-log IC50 (pIC50) in data set [33] is 7.00; in data set [34] it was 7.00; with MCF7, 5.40.
`COc1cc2nc(-c3ccccc3)cc3c2cc1/C=C/CC(C)(C)COC(=O)N[C@H]1CCCCC/C=C\[C@@H]2C[C@@]2(C(=O)NS(=O)(=O)C2CC2)NC(=O)[C@@H]2C[C@H](CN2C1=O)O3`: the pKi was 8.92 in data set [31] and 10.54 in the data set on Hepatitis C virus [32]. The pEC50 with Hepatitis C virus [2] was 8.70.
`CC(C)[C@H](NC(=O)OC(C)(C)C)C(=O)N[C@@H](C)C(=O)N[C@@H](Cc1ccccc1)[C@@H](O)C[C@@H](C)C(=O)N[C@H](C(=O)NCc1ccncc1)C(C)C` gave a pIC50 on Beta-secretase 1 [35] of 5.68.
As for `Cn1c2cnc1OCC/C=C\CCCCOc1ccccc1-2`, the pIC50 in data set [36] is 5.49; in [37], 5.14; against Adenosine receptor A3, 6.07; on D(1A) dopamine receptor, 5.96.

Usually pKi stands for −log10 of the Ki, conventionally taken in molar units. By pIC50 is commonly meant the negative decadic logarithm of the IC50, by convention in mol/L. One may read the pEC50 as the negative decadic logarithm of the EC50, by convention in mol/L. A word on the half-life: it is the time needed for the level to fall by half in the phase considered. One may read the bioavailability as the share of a dose that reaches the circulation, judged against a reference dose that is usually intravenous. One may read the clearance as a measure of how efficiently the substance is removed, as volume per time. One may read the Kp as tissue or fluid exposure divided by exposure in the circulation.
